Assay results from patent US20090017103A1, “Antisense oligonucleotides for prevention of metastasis formation of cancer cells” (priority 2003, published 2009).

Tests used:
osteopontin = assay: Western blot of osteopontin expression after exposure to ASOs; assay type: cell-based, human; settings: for osteopontin expression in relation to untreated control (100%): MDA-MB231, lipofectamine, 10 μM; for reduction of osteopontin expression: MDA-MB-231
bone sialoprotein II = assay: Western blot of bone sialoprotein II expression after exposure to ASOs; assay type: cell-based, human; settings: for bone sialoprotein II expression in relation to untreated control (100%): 10 μM

Substance | osteopontin expression in relation to untreated control (100%) (osteopontin; single exposure) | osteopontin expression in relation to untreated control (100%) (osteopontin; twofold exposure) | reduction of osteopontin expression (osteopontin; repeated ASO exposure) | reduction of osteopontin expression (osteopontin; single exposure) | maximum inhibition of protein expression / suppression of protein level (OPN) (osteopontin; MDA-MB-231 cells, Western blot) | bone sialoprotein II expression in relation to untreated control (100%) (bone sialoprotein II; MDA-MB231, single exposure, electroporation) | bone sialoprotein II expression in relation to untreated control (100%) (bone sialoprotein II; MDA-MB231, single exposure, lipofectamine) | bone sialoprotein II expression in relation to untreated control (100%) (bone sialoprotein II; MDA-MB231, twofold exposure, lipofectamine) | bone sialoprotein II expression in relation to untreated control (100%) (bone sialoprotein II; MDA-MB231^F (growing without FBS), single exposure, lipofectamine) | bone sialoprotein II expression in relation to untreated control (100%) (bone sialoprotein II; MDA-MB435s, single exposure, lipofectamine) | maximum inhibition of protein expression / suppression of protein level (BSP II) (bone sialoprotein II; MDA-MB-231 cells, Western blot) | reduction of bone sialoprotein expression (bone sialoprotein II; single exposure) | reduction of bone sialoprotein protein level (bone sialoprotein II; twofold exposure)
5′-CTAACTTAAAAAACAAAAGA-3′ (antisense CTAACTTAAAAAACAAAAGA; all phosphorothioate, sugars by position and methylation of C not given here) [ASO-OPN-4] | 16% | 23% | 77% | 84% | 85% | – | – | – | – | – | – | – | –
5′-GCT-TTC-TTC-GTT-TTC-ATT-TC-3′ [ASO-BSPII-6] | – | – | – | – | – | 16% | 33% | 15% | 79% | 0% | 75% | 84% | 81%
